In data set [1] the test system is HeLa (Human Cervix epithelioid carcinoma cell line). Briefly: Anti-cancer screening, HeLa cell proliferation. It counts as cell-based. As to conditions: for IC50: concentration required to inhibit 50% of the cell proliferation; for IC90: concentration required to inhibit 90% of the cell proliferation, read-out: MIC.
Data set [2] has as its system M. Tuberculosis H37Ra (DORMANT). Put plainly: Anti TB in vitro, dormant. Type of data set: cell-based, Mycobacterium tuberculosis H37Ra. As to conditions: Mycobacterium tuberculosis, In Vitro, H37Ra DORMANT; for IC50: read-out: IC 50; for MIC: read-out: MIC.
In data set [3] the test system is M. Tuberculosis. Put plainly: Anti TB ex vivo infection model, active. As to conditions: Mycobacterium tuberculosis. Type of data set: cell-based.
In data set [4] the test system is Panc-1 (Human pancreas carcinoma cell line). Put plainly: Anti-cancer screening, Panc-1 cell proliferation. It counts as cell-based. As to conditions: for IC50: concentration required to inhibit 50% of the cell proliferation; for IC90: concentration required to inhibit 90% of the cell proliferation, read-out: MIC.
Data set [5] relates to M. Tuberculosis H37Ra (ACTIVE). Briefly: Anti TB in vitro, active. Type of data set: cell-based, Mycobacterium tuberculosis H37Ra. As to conditions: Mycobacterium tuberculosis, In Vitro, H37Ra ACTIVE; for IC50: read-out: IC 50; for MIC: read-out: MIC.
Data set [6] has as its system A549 (Human lung adenocarcinoma epithelial cell line). Briefly: Anti-cancer screening, A549 cell proliferation. Type of data set: cell-based. As to conditions: for IC50: concentration required to inhibit 50% of the cell proliferation; for IC90: concentration required to inhibit 90% of the cell proliferation, read-out: MIC.
Data set [7] has as its system THP-1 (Human acute monocytic leukemia cell line). Briefly: Anti-cancer screening, THP-1 cell proliferation. It counts as cell-based. As to conditions: for IC50: concentration required to inhibit 50% of the cell proliferation; for IC90: concentration required to inhibit 90% of the cell proliferation, read-out: MIC.
The subject of data set [8] is M. Tuberculosis. Briefly: Anti TB ex vivo infection model, dormant. It counts as cell-based. As to conditions: Mycobacterium tuberculosis.

Each structure is given as a SMILES string. Values after ≈ are worked out from the molar mass of the structure shown.

As usually defined, the MIC is the least concentration at which growth counts as inhibited. For orientation: melting point means the temperature of the solid-liquid transition.

`COC(=O)CC[C@@H](C)C1CCC2C3C([C@H](n4nnc5ccccc54)C(=O)[C@@]21C)[C@@]1(C)CC[C@@H](OC(C)=O)C[C@H]1C[C@H]3OC(C)=O` (stereo partly drawn) [Compound 8, (3R,5S,7R,10S,11S,13R)-11-(1H-benzo[d][1,2,3]triazol-1-yl)-17-((R)-5-methoxy-5-oxopentan-2-yl)-10,13-dimethyl-12-oxohexadecahydro-1H-cyclopenta[a]phenanthrene-3,7-diyl diacetate] registered a melting point of 106 to 109 °C. For the same molecule, in [1], the IC50 is 20.3 µg/mL and the IC90 was more than 100 µg/mL. Moreover, in data set [2], the IC50 worked out at 1.27 µg/mL and the MIC was 7.15 µg/mL. In data set [3], this molecule registered an IC50 of 1.11 µg/mL and an MIC of 8.6 µg/mL. Besides, in [4], the IC50 came to 50 µg/mL and the IC90 was more than 100 µg/mL. Further, in data set [5], the IC50 was found to be 1.08 µg/mL and the MIC amounted to 9.79 µg/mL. Moreover, in [6], the IC50 stood at 20 µg/mL and the IC90 is more than 100 µg/mL. In addition, in data set [7], the IC50 stood at 29.9 µg/mL and the IC90 was more than 100 µg/mL. Moreover, in [8], the IC50 stood at 1.65 µg/mL and the MIC came out at 8.16 µg/mL.
The molecule `COC(=O)CC[C@@H](C)C1CCC2C3C([C@H](NC(=O)C4CCCN4C(=O)OC(C)(C)C)C(=O)[C@@]21C)[C@@]1(C)CC[C@@H](OC(C)=O)C[C@H]1C[C@H]3OC(C)=O` (stereo partly drawn) [Compound 9, (3R,5S,7R,10S,11S,13R)-11-(1-(tert-butoxycarbonyl)pyrrolidine-2-carboxamido)-17-((R)-5-methoxy-5-oxopentan-2-yl)-10,13-dimethyl-12-oxohexadecahydro-1H-cyclopenta[a]phenanthrene-3,7-diyldiacetate] registered a melting point of 114 to 118 °C. Besides, in data set [1], the IC50 was 18.6 µg/mL (≈ 25.9 µM) and the IC90 is more than 100 µg/mL. In data set [2], the IC50 is 2.02 µg/mL (≈ 2.82 µM) and the MIC came to 8.91 µg/mL (≈ 12.4 µM). Also, in data set [3], the IC50 is 4.16 µg/mL (≈ 5.8 µM) and the MIC was 26.8 µg/mL (≈ 37.4 µM). Moreover, in data set [4], the IC50 is 15 µg/mL (≈ 20.9 µM) and the IC90 was more than 100 µg/mL. Moreover, in data set [5], the IC50 came to 0.92 µg/mL (≈ 1.28 µM) and the MIC came out at 9.41 µg/mL (≈ 13.1 µM). In data set [6], the IC50 came to 52 µg/mL (≈ 72.5 µM) and the IC90 was more than 100 µg/mL. Besides, in [7], the IC50 is 46 µg/mL (≈ 64.1 µM) and the IC90 is more than 100 µg/mL. Further, in data set [8], the IC50 was determined as 3.42 µg/mL (≈ 4.77 µM) and the MIC worked out at 26.3 µg/mL (≈ 36.7 µM).
